What was measured:
[1] = tested on: blood glucose; experiment: Blood glucose in extended pharmacokinetics study; assay type: in vivo, SD rats; conditions: high-dose LaKe exposure; continuous ingestion of 5% glucose water
Experimental: Animals (SD rats, both male and female, 7–9 weeks) were individually housed from 24 h before dosing until the end of the study. Food was withdrawn the night before initiation of study; following food withdrawal, animals were maintained on glucose water containing 5% w/v glucose and 1% saline to suppress endogenous ketone production throughout the study. Food was returned 8 h post-test article dosing. Animals were monitored for distress or notable changes in behavior during the study. The animals were euthanized by CO2 inhalation 2 h after the last sample collection time point.
Blood collection was performed by jugular vein cannulation of each animal and divided into two parts. About 10–15 μL of blood was used for the analysis of glucose by glucometer measurement. About 0.20 mL of blood was collected into prechilled commercial EDTA-K2 tubes containing 5 μL of the esterase inhibitor (100 mM PMSF in ethanol, 40 mg/mL NaF and 120 mg/mL […] in water = 5:95(v/v). All blood samples were placed on wet ice until centrifugation.

[2] = Stability of LaKe in plasma, human; assay type: in vitro ADME; conditions: thawed); human plasma (frozen)
Experimental: The in vitro stability of LaKe was evaluated following incubation in simulated gastric fluid (SGF), simulated intestinal fluid (SIF), fresh and frozen plasma (rats and humans, respectively), and the presence of hepatocytes (rats and humans) and liver microsomes (rats and humans). At the chosen time points, the mixtures were analyzed by LC-MS/MS to quantify the remaining LaKe and all assays included at least one control compound with known pharmacokinetic properties. […]
centrifuged at 4000 rpm, 4℃ for 20 min. 60 μL of supernatant was mixed with 180 μL of purified water for subsequent LC/MS/MS analysis.
LC-MS/MS Condition: ACQUITY UPLC BEH C18 1.7um 2.1 * 50mm Column (Part No.186002350). Mobile phase: A: 0.1% Formic Acid in Water; B: 0.1% Formic Acid in ACN.
Stability of LaKe in simulated intestinal fluid (SIF)
Preparation of SIF-solution: 0.136 g KH2PO4 and 0.064 g pancreatin was dissolved H2O to a total volume of solution 20 mL. The pH of the test solution was adjusted to 6.80 ± 0.05.
Procedure: 2 μL of a 10mg/ml working solution of LaKe in DMSO was spiked into 96-deep-well plates corresponding to timepoints T0, T60, T120, T360 and T1440. Experiments were performed in duplicate. 198 μL of SIF solution was then transferred to the individual wells (except T0) to reach 0.1mg/ml as the final test concentration for each time point (60, 120, 360, 1440 minutes). […]

For `CC(O)CCOC(=O)C(C)O` (centres unmarked) [LaKe, 3-hydroxybutyl 2-hydroxypropanoate], the blood glucose [1] was “nonsignificant trend toward lower glucose levels” and the half-life at 2 µM [2] was less than 30 min.

— paper PMC11403612, “Preparation and Preclinical Characterization of a Simple Ester for Dual Exogenous Supply of Lactate and Beta-hydroxybutyrate” (Journal of Agricultural and Food Chemistry, 2024)
